From EP4567035A1, “NOVEL COMPOUND AS HYPOXIA-INDUCIBLE FACTOR 1(HIF-1) INHIBITOR OR VASCULAR ENDOTHELIAL GROWTH FACTOR (VEGF) INHIBITOR, AND PHARMACEUTICAL COMPOSITION COMPRISING SAME” (Nextgen Bioscience Co., Ltd., priority 2022, dated 2024)
Read-outs that look alike come from different tables or passages of the source.

Tests used:
VEGF = assay: Evaluation of VEGF protein secretion level (Human VEGF ELISA) in ARPE-19 cell medium under hypoxic conditions; assay type: cell-based; settings: ARPE-19 cells; pretreated 2 hours, 24 hours hypoxic conditions; secreted VEGF in medium supernatant by ELISA; concentration range reducing VEGF by 50% vs untreated control; read-out: IC50 VEGF
Outline: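 Human ARPE-19 cells were pretreated 2 h with compound (0.1 nM–10 µM, in DMEM/F12 with 1% FBS), then held 24 h in hypoxia (1% O2, 5% CO2). Secreted VEGF in the supernatant was quantified by ELISA (A450). The value is the concentration range giving ≥50% VEGF reduction versus untreated control.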

HIF-1α = molecular target: T1, HIF-1α (Homo sapiens, UniProt Q16665); assay: Analysis of HIF-1α protein expression (Western blot) in ARPE-19 cells under mixed hypoxic condition; assay type: cell-based; settings: concentration range at which HIF-1α expression is reduced by 50% vs untreated control
T1 construct: endogenous in cells; host or cells: ARPE-19 (ATCC CRL-2302)
Outline: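 ARPE-19 cells were pretreated 16 h or 2 h with compound (0.1 nM–10 µM, serum-free DMEM/F12), then held 1 h or 24 h in mixed hypoxia (1% O2 plus CoCl2). HIF-1α was quantified by Western blot against β-actin; the concentration range giving ≥50% reduction vs untreated control was reported.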

[1] = mixed hypoxic condition (1% oxygen + CoCl2) for 1 hour, read-out: IC50 HIF-1α Hypoxia (1 hour)
[2] = values marked * in the table, mixed hypoxic condition (1% oxygen + CoCl2) for 24 hours, read-out: IC50 HIF-1α, Hypoxia(24h)

T1 sequence (Q16665 whole entry): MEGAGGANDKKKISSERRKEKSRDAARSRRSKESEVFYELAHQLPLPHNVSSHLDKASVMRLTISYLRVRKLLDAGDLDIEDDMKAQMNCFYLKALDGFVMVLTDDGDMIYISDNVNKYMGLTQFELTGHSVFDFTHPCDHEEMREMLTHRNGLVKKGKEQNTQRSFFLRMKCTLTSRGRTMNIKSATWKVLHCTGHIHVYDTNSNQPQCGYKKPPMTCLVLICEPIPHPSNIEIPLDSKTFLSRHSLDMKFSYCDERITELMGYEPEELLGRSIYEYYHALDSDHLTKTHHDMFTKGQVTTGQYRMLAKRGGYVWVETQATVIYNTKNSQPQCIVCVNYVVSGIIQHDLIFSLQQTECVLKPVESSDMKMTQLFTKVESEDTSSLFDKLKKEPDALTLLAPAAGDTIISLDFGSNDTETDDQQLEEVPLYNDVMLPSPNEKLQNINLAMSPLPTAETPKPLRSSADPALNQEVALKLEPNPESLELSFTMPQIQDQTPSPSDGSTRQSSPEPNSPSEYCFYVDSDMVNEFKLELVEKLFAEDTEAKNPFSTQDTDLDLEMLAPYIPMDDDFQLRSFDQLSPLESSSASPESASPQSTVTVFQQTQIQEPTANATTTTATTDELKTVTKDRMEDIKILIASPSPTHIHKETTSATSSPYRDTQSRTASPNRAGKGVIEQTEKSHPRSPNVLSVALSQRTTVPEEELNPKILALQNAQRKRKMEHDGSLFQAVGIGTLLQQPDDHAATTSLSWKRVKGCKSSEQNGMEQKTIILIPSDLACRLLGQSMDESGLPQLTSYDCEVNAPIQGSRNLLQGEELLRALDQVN

SMILES	IC50 (VEGF) [µM]	DC50 (HIF-1α; [1]) [µM]	DC50 (HIF-1α; [2]) [µM]
COc1ccc(Nc2cc(F)cc(CNC(=O)c3ncnc4nc(C5CCCC5)n(C)c34)c2)cc1 [Example 36, 8-Cyclopentyl-N-(3-fluoro-5-((4-methoxyphenyl)amino)benzyl)-7-methyl-7H-purine-6-carboxamide]	0.1 to 1	< 0.1	
CS(=O)(=O)c1ccc(Nc2cc(F)cc(CNC(=O)c3ncnc4nc(C5CCCC5)[nH]c34)c2)cc1 [Example 19, 8-Cyclopentyl-N-(3-fluoro-5-((4-(methylsulfonyl)phenyl)amino)benzyl)-7H-purine-6-carboxamide]	0.1 to 1	< 0.1	
O=C(Nc1cc(F)cc(-c2cnn(-c3ccc(F)cc3)c2)c1)c1ncnc2nc(C3CCCC3)[nH]c12 [Example 105, 8-Cyclopentyl-N-(3-fluoro-5-(1-(4-fluorophenyl)-1H-pyrazol-4-yl)phenyl)-7H-purine-6-carboxamide]	> 10		> 10
COc1ccc(Nc2cc(F)cc(CNC(=O)c3ncnc4nc(C5CCCC5)[nH]c34)c2)cc1 [Example 35, 8-Cyclopentyl-N-(3-fluoro-5-((4-methoxyphenyl)amino)benzyl)-7H-purine-6-carboxamide]	0.1 to 1	< 0.1	
O=C(NCc1cc(F)cc(Nc2ccc(C(F)(F)F)cc2)c1)c1ncnc2nc(C3CCCC3)[nH]c12 [Example 41, 8-Cyclopentyl-N-(3-fluoro-5-((4-(trifluoromethyl)phenyl)amino)benzyl)-7H-purine-6-carboxamide]	0.1 to 1	< 0.1	
N#Cc1cccc(-n2cc(-c3cc(F)cc(CNC(=O)c4ncnc5nc(C6CCCC6)[nH]c45)c3)cn2)c1 [Example 23, N-(3-(1-(3-Cyanophenyl)-1H-pyrazol-4-yl)-5-fluorobenzyl)-8-cyclopentyl-7H-purine-6-carboxamide]	0.1 to 1	< 0.1	
CN1CCC[C@H]1c1nc2ncnc(C(=O)NCc3cc(F)cc(-c4cnn(C)c4)c3)c2[nH]1 [Example 63, (S)-N-(3-fluoro-5-(1-methyl-1H-pyrazol-4-yl)benzyl)-8-(1-methylpyrrolidin-2-yl)-7H-purine-6-carboxamide]	1 to 10	0.1 to 1	
O=C(O)c1cccc(-n2cc(-c3cc(F)cc(CNC(=O)c4ncnc5nc(C6CCCC6)[nH]c45)c3)cn2)c1 [Example 49, 3-(4-(3-((8-Cyclopentyl-7H-purine-6-carboxamido)methyl)-5-fluorophenyl)-1H-pyrazol-1-yl)benzoic acid]	1 to 10	< 0.1	

Results, then the compound that gave them:

IC50 (VEGF) [µM]	DC50 (HIF-1α; [1]) [µM]	DC50 (HIF-1α; [2]) [µM]	SMILES
> 10		0.1 to 1	O=C(NCc1cc(F)cc(Nc2cc[nH]n2)c1)c1ncnc2nc(C3CCCC3)[nH]c12 [Example 120, N-(3-((1H-pyrazol-3-yl)amino)-5-fluorobenzyl)-8-cyclopentyl-7H-purine-6-carboxamide]
< 0.1		< 0.1	CC(=O)c1ccc(-n2cc(-c3cc(F)cc(CNC(=O)c4ncnc5nc(C6CCCC6)[nH]c45)c3)cn2)cc1 [Example 123, N-(3-(1-(4-acetylphenyl)-1H-pyrazol-4-yl)-5-fluorobenzyl)-8-cyclopentyl-7H-purine-6-carboxamide]
0.1 to 1		< 0.1	[2H]C([2H])([2H])n1cc(Nc2cc(F)cc(CNC(=O)c3ncnc4nc(C5CCCC5)[nH]c34)c2)cn1 [Example 151, 8-Cyclopentyl-N-(3-fluoro-5-((1-(methyl-d3)-1H-pyrazol-4-yl)amino)benzyl)-7H-purine-6-carboxamide]
0.1 to 1		< 0.1	O=C(NCc1cc(F)cc(-c2cnn(-c3ccsc3)c2)c1)c1ncnc2nc(C3CCCC3)[nH]c12 [Example 117, 8-Cyclopentyl-N-(3-fluoro-5-(1-(thiophen-3-yl)-1H-pyrazol-4-yl)benzyl)-7H-purine-6-carboxamide]
> 10		0.1 to 1	O=C(NCc1cc(F)cc(Nc2nncs2)c1)c1ncnc2nc(C3CCCC3)[nH]c12 [Example 136, N-(3-((1,3,4-thiadiazol-2-yl)amino)-5-fluorobenzyl)-8-cyclopentyl-7H-purine-6-carboxamide]
